Assay results published in article PMC10132233 (Journal of Enzyme Inhibition and Medicinal Chemistry, 2023).

Assays:
22RV1 cells = assay: Apoptosis analysis (Annexin V-PE/DAPI), 22RV1; format: cell-based, human; settings: 22RV1, compound at its IC50, 24 h
Procedure: (§1) The control PC3 and 22RV1 cells and compound-treated cells were stained with PE-Annexin V and DAPI for a more appropriate cell death examination, and the cellular fluorescence analysis was then performed using ADAMII LS (Figures 4–6). Apoptosis is a type of programmed cell death that can be detected using Annexin V and the DAPI reagent. On plasma membranes, annexin V binds to […] and DAPI can bind to DNA in cells. The dot plot and image data detect early and late apoptotic cells using these two fluorophores. […] Moreover, compound 9f-treated PC3 cells went through early apoptosis (6.27%), and late apoptosis phase (16.94%) (Figures 4(D) and 6). Likewise, the fluorescence images for 22RV1 (Figure 5) and PC3 (Figure 6) cells complement the dot plot data, as higher fluorescence of DAPI and RF images clearly distinguished compound 9f-treated cells from control. […]
(§2) Annexin V conjugated to fluorochromes (PE) retains its high affinity for phosphatidylserine (PS), making it a sensitive probe for flow cytometric analysis of apoptotic cells. […] When apoptosis is measured over time, cells can often be tracked from PE Annexin V and DAPI negative (viable, or no measurable apoptosis), to PE Annexin V positive and DAPI negative (early apoptosis), and finally to PE Annexin V and DAPI positive (end stage apoptosis and death). […]

EGFR = EGFR (Homo sapiens, UniProt P00533); assay: HotSpot kinase assay over EGFR (Reaction Biology)
[1] = tested on: 22RV1 prostate carcinoma cell line; assay: MTT cytotoxicity assay, 22RV1; format: cell-based; settings: Homo sapiens, 24 h
Excerpt: Accordingly, we aimed to investigate the cytotoxic potential of this new series against prostate carcinoma cell lines. […] The potent nanomolar cell-based activity of this series of compounds over the tested prostate carcinoma cell line could be attributed to other possible targets in addition to EGFR and HER2 receptors. The presence of the 2-nitroimidazole moiety in the chemical structure of compounds 9a–h could develop possible covalent bonds between the nitroimidazole moiety and some cellular proteins.
Prostate cancer cell lines (PC3 and 22RV1) of American Type Culture Collection (ATCC) were obtained from Korean Cell Center (KCL). PC3 and 22RV1 cell lines were cultured in Roswell Park Memorial Institute Medium (RPMI) 1640 and Dulbecco’s modified Eagle’s medium (DMEM) (GenDepot, Barker, TX) supplemented with 1% penicillin–streptomycin and 10% foetal bovine serum (FBS). The cells were maintained at 37 °C in a 5% CO2 with a 95% humid atmosphere.
To further analyse the intracellular cytotoxicity effect of the as-synthesised compounds, MTT assay was performed. Moreover, the experiments were divided into subcategories. In each group, cancer cells were first seeded in 96-well plates (4 × 10^4 cells per well) and then incubated for 24 h at 37 °C in a 5% CO2-containing atmosphere. Subsequently, the medium from the culture plate was removed, and 100 µL of RPMI media containing different concentrations of compounds (0.01, 0.005, 0.0025, 0.00125, and 0.000625 µM) were then added into the cell lines in each well and incubated for 24 h in a 5% CO2 humidified incubator at 37 °C. Afterwards, MTT solution (150 μL, 1 mg/mL) was added to each well, replacing the media-containing compounds. After 4 h of incubation, the MTT reagent was removed, and 200 μL of DMSO was then added to dissolve the formazan crystals, and colour intensity was measured at a wavelength of 540 nm using a BioTek Synergy H1 instrument (BioTek, Winooski, VT). IC50 was calculated according to the equation of Boltzmann sigmoidal concentration–response curve using Graph Pad Prism 5 (La Jolla, CA).

[2] = molecular target: T1, c-mesenchymal-epithelial transition factor (c-MET) (Homo sapiens, UniProt P08581); assay: Small kinase panel, c-MET; format: biochemical; settings: read-out: % kinase inhibition (relative to DMSO control) c-MET
T1 construct: purchased Reaction Biology Co. (Malvern, PA)
Procedure: (§3) Enzyme inhibitory assays were carried out as described in our previous reports in the literature. […] The HotSpot assay platform includes specific kinase/substrate pairs and required cofactors. The base reaction buffer consisted of 20 mM Hepes (pH 7.5), 10 mM MgCl2, 1 mM EGTA, 0.02% Brij35, 0.02 mg/mL BSA, 0.1 mM Na3VO4, 2 mM DTT, and 1% DMSO. The tested compounds were dissolved in 100% DMSO to a specific concentration, and serial dilution was conducted. The reaction mixture containing the tested compound and 33P-ATP was incubated at room temperature for 2 h, and radioactivity was detected using the filter-binding method.

[3] = molecular target: T2, fibroblast growth factor receptor 1 (FGFR1) (Homo sapiens, UniProt P11362); assay: Small kinase panel, FGFR1; format: biochemical; settings: read-out: % kinase inhibition (relative to DMSO control) FGFR1
T2 construct: purchased Reaction Biology Co. (Malvern, PA)
Procedure: as §3

PC3 cells = assay: Apoptosis analysis (Annexin V-PE/DAPI), PC3; format: cell-based, human; settings: PC3, compound at its IC50, 24 h
Procedure: as §1, §2

HER2 = HER2 (Homo sapiens, UniProt P04626); assay: HotSpot kinase assay over HER2 (Reaction Biology)
Chain of HER2 (P04626 23-1255): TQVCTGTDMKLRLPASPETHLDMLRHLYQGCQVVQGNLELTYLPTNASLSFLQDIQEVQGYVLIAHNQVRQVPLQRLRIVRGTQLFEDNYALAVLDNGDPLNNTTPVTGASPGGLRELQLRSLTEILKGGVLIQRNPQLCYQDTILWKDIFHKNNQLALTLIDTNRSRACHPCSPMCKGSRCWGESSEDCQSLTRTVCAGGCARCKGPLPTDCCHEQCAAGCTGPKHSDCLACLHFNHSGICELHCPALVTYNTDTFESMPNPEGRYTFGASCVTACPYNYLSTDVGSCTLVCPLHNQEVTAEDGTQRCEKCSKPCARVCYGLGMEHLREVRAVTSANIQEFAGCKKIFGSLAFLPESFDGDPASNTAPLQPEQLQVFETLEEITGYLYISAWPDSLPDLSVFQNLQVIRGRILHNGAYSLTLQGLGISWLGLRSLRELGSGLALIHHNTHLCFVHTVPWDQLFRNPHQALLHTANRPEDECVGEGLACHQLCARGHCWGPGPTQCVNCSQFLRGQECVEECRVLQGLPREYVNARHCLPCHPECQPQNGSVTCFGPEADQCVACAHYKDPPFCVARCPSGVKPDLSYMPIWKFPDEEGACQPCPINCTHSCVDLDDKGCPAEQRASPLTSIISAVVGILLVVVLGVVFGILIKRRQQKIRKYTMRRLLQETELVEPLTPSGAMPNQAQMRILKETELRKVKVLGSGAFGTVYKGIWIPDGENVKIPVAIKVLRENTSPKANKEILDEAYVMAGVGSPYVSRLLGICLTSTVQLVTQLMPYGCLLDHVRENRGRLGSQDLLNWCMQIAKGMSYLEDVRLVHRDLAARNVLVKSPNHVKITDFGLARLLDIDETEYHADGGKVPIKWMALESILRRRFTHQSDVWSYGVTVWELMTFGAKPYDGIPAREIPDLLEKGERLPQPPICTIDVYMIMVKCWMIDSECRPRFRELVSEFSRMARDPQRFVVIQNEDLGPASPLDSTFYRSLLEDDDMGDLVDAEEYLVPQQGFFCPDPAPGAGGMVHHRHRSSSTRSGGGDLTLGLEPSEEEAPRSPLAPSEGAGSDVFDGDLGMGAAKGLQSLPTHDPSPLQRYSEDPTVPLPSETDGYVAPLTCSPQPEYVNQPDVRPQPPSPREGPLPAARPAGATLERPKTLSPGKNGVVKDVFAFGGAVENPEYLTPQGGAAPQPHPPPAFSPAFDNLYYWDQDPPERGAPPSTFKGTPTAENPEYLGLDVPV

Chain of EGFR (P00533 25-1210): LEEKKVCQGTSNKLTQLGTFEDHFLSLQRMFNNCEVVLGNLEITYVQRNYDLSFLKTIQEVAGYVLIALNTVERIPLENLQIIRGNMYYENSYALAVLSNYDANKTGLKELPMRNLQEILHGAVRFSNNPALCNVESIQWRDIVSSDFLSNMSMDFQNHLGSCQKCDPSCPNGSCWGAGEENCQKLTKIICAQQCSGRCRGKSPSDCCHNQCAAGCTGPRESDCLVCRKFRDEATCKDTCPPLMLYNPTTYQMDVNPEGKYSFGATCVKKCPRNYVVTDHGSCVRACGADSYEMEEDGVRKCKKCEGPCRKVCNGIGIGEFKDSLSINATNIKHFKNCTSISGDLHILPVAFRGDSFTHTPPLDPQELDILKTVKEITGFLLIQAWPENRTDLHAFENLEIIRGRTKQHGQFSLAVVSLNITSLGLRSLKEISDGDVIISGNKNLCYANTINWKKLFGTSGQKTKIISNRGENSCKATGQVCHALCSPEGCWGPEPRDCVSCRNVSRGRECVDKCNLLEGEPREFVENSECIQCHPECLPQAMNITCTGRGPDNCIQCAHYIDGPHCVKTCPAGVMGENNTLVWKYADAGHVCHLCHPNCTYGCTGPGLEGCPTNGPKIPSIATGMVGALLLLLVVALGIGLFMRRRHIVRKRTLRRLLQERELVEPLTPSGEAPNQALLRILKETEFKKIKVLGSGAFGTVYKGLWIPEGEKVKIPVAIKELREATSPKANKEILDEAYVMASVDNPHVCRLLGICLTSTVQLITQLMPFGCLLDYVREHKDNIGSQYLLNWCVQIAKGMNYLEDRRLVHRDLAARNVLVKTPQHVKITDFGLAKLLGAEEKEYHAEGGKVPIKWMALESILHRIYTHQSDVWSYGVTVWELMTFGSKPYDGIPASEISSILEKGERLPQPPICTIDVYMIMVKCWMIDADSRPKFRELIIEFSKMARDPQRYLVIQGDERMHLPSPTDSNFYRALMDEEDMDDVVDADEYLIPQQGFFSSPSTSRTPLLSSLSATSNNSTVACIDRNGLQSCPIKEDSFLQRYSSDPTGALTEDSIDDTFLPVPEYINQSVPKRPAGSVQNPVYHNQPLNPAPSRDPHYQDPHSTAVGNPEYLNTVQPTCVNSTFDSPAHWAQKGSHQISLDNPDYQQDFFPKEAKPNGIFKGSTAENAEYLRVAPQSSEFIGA
T1 sequence (P08581 25-1390): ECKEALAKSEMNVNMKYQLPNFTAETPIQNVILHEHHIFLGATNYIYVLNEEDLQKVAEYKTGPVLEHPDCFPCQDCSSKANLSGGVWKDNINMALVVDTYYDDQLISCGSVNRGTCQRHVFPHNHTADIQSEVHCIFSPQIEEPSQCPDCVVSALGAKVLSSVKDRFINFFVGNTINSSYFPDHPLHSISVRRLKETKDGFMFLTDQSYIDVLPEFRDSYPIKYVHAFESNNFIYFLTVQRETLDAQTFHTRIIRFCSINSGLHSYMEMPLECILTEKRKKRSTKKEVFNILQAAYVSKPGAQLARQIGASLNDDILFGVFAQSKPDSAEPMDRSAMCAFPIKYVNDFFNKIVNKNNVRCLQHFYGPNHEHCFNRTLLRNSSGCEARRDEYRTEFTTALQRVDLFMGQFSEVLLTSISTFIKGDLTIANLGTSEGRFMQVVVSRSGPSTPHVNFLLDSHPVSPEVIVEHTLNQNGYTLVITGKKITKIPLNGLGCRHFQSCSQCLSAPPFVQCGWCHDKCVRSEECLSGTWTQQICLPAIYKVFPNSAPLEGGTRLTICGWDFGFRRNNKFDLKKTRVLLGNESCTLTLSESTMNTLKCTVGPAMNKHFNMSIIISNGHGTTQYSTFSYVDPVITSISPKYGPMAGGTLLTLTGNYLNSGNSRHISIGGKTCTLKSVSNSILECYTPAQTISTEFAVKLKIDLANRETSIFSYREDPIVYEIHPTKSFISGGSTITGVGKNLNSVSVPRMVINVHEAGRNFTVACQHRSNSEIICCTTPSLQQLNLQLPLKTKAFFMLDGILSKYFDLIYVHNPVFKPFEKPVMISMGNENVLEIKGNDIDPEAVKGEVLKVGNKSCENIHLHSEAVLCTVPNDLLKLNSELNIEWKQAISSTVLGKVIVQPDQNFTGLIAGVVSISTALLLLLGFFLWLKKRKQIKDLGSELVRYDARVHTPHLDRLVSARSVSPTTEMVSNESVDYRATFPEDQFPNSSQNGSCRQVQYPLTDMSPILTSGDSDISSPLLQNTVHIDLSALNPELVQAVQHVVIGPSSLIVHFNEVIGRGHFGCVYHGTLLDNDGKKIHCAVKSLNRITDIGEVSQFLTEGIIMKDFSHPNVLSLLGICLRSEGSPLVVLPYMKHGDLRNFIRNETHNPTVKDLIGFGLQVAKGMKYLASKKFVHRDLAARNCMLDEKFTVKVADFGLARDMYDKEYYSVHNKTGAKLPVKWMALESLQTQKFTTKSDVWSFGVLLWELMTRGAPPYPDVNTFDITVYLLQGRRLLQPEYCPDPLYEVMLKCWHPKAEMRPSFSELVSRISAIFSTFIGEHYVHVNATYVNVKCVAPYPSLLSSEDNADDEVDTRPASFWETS
T2 sequence (P11362 22-822): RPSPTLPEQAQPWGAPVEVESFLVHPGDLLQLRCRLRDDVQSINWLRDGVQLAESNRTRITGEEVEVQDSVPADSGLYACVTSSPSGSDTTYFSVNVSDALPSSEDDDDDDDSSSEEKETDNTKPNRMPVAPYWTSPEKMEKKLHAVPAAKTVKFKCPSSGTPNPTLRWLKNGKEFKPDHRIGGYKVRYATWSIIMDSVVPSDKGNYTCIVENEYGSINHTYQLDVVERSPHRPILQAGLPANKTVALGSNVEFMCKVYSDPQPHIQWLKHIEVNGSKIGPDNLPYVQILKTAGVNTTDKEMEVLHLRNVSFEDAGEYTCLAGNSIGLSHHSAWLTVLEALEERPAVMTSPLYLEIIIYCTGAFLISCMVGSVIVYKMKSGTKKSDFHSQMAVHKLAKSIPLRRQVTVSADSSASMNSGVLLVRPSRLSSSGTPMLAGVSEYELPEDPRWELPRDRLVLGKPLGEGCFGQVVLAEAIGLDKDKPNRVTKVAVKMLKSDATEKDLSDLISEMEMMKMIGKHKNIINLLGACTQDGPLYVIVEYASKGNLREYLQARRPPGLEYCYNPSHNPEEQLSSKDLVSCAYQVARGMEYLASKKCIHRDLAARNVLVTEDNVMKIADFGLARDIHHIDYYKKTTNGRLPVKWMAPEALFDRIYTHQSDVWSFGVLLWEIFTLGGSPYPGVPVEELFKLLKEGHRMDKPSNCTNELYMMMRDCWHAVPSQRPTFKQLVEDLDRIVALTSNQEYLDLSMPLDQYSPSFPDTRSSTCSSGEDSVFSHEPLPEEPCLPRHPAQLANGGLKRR

## COc1cc2ncnc(Nc3ccc(Oc4cccc(C(F)(F)F)c4)c(Cl)c3)c2cc1OCCCCn1ccnc1[N+](=O)[O-] [Compound 9f, N-(3-Chloro-4-(3-(trifluoromethyl)phenoxy)phenyl)-7-methoxy-6-(4-(2-nitro-1H-imidazol-1-yl)butoxy)quinazolin-4-amine]
22RV1 cells
  early apoptosis (E.A): 13.20%
  late apoptosis (L.A): 15.38%
EGFR
  IC50: 2.3 nM
EGFR; ratio of IC50 values
  fold of potency over EGFR compared to TAK-285: 10 fold
  fold of potency over EGFR compared to staurosporine: 38 fold
EGFR; read-out: % kinase inhibition EGFR
  inhibition at 10 µM: 99.3%
[1]
  IC50: 2.7 nM
[2]
  inhibition at 10 µM: 24.6%
[3]
  inhibition at 10 µM: 5.54%
PC3 cells
  early apoptosis (E.A): 6.27%
  late apoptosis (L.A): 16.94%
HER2
  IC50: 234 nM
HER2; read-out: % kinase inhibition HER2
  inhibition at 10 µM: 98%
